Results published in US6355799B1, “Substituted benzene compounds, process for their preparation, and herbicidal and defoliant compositions containing them” (ISK Americas Incorporated, priority 1997, dated 2002).

How the values were obtained:
Type in all cases: in vivo
[1] = tested on: green foxtail (Setaria viridis, SETVI); assay: Pre-emerge test, greenhouse herbicide activity screening; settings: rated 14 days after application, 0 = no damage, 100 = complete death
How it was run: (§1)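 Compounds in acetone were track-sprayed at 15–1000 g ai/ha: pre-emergence onto soil sown the previous day, then top-watered to incorporate and later bottom-watered; post-emergence onto 2–3 leaf plants with 0.25% v/v surfactant, bottom-watered only. Ratings on a 0–100 phytotoxicity scale were taken at day 14.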

[2] = tested on: ivyleaf morningglory (Ipomoea hederacea, IPOHE); assay: as above; settings: rated 14 days after application, 0 = no damage, 100 = complete death
How it was run: as §1

[3] = tested on: johnsongrass (Sorghum halepense, SORHA); assay: as above; settings: rated 14 days after application, 0 = no damage, 100 = complete death
How it was run: as §1

[4] = tested on: barnyardgrass (Echinochloa crus-galli, ECHCG); assay: as above; settings: rated 14 days after application, 0 = no damage, 100 = complete death
How it was run: as §1

[5] = tested on: velvetleaf (Abutilon theophrasti, ABUTH); assay: as above; settings: rated 14 days after application, 0 = no damage, 100 = complete death
How it was run: as §1

[6] = tested on: lambsquarters (Chenopodium album, CHEAL); assay: as above; settings: rated 14 days after application, 0 = no damage, 100 = complete death
How it was run: as §1

[7] = tested on: large crabgrass (Digitaria sanguinalis, DIGSA); assay: as above; settings: rated 14 days after application, 0 = no damage, 100 = complete death
How it was run: as §1

[8] = tested on: sicklepod (Cassia obtusifolia, CASOB); assay: as above; settings: rated 14 days after application, 0 = no damage, 100 = complete death
How it was run: as §1

[9] = tested on: field corn (Zea mays L., var. Dekalb 535, CORN); assay: Pre-emerge test, crop safety; settings: rated 14 days after application, 0 = no damage, 100 = complete death
How it was run: (§2)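 Fourteen days after spraying, crop and weed injury was graded visually from 0, no effect, to 100, every plant dead. Test substances were dissolved in acetone and applied at 15–1000 g ai/ha with a flat-fan nozzle. Application was either pre-emergence, one day after sowing, or post-emergence at the 2–3 leaf stage.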

[10] = tested on: upland rice (Oryza sp., var. Tebonnet, RICE); assay: Pre-emerge test, crop safety; settings: rated 14 days after application, 0 = no damage, 100 = complete death
How it was run: as §2

[11] = tested on: field corn (Zea mays L., var. Dekalb 535, CORN); assay: Post-emerge test, crop safety; settings: post-emerge, 14 days after application, rating scale 0-100
How it was run: (§3)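 Rating: 0–100 visual injury, 14 DAA. Application: acetone, 187 l/ha, 15–1000 g ai/ha, flat-fan track sprayer with nozzle 40–45 cm above soil or canopy. Post-emerge runs used 0.25% v/v surfactant on 2–3 leaf plants.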

[12] = tested on: upland rice (Oryza sp., var. Tebonnet, RICE); assay: Post-emerge test, crop safety; settings: post-emerge, 14 days after application, rating scale 0-100
How it was run: as §3

[13] = tested on: redroot pigweed (Amaranthus retroflexus, AMARE); assay: Pre-emerge test, greenhouse herbicide activity screening; settings: rated 14 days after application, 0 = no damage, 100 = complete death
How it was run: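 Herbicidal damage is scored 0 (none) to 100 (complete plant death) two weeks after a simulated field spray. Rates span 15–1000 g ai/ha, delivered in acetone at 187 l/ha. For post-emergence treatments, plants have 2–3 leaves and the spray carries 0.25% v/v non-ionic surfactant.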

[14] = tested on: redroot pigweed (Amaranthus retroflexus, AMARE); assay: Post-emerge test, greenhouse herbicide activity screening; settings: post-emerge, 14 days after application, rating scale 0-100
How it was run: (§4)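 Applied at 15–1000 g ai/ha from acetone in 187 l/ha spray volume. Post-emergence applications included 0.25% v/v non-ionic surfactant and reached plants sown 8–21 days before. Pre-emergence applications were incorporated by surface watering. Efficacy or crop damage was rated on a 0–100 scale after 14 days.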

[15] = tested on: green foxtail (Setaria viridis, SETVI); assay: as above; settings: post-emerge, 14 days after application, rating scale 0-100
How it was run: as §4

[16] = tested on: ivyleaf morningglory (Ipomoea hederacea, IPOHE); assay: as above; settings: post-emerge, 14 days after application, rating scale 0-100
How it was run: as §4

[17] = tested on: johnsongrass (Sorghum halepense, SORHA); assay: as above; settings: post-emerge, 14 days after application, rating scale 0-100
How it was run: as §4

[18] = tested on: barnyardgrass (Echinochloa crus-galli, ECHCG); assay: as above; settings: post-emerge, 14 days after application, rating scale 0-100
How it was run: as §4

[19] = tested on: velvetleaf (Abutilon theophrasti, ABUTH); assay: as above; settings: post-emerge, 14 days after application, rating scale 0-100
How it was run: as §4

[20] = tested on: lambsquarters (Chenopodium album, CHEAL); assay: as above; settings: post-emerge, 14 days after application, rating scale 0-100
How it was run: as §4

[21] = tested on: large crabgrass (Digitaria sanguinalis, DIGSA); assay: as above; settings: post-emerge, 14 days after application, rating scale 0-100
How it was run: as §4

[22] = tested on: sicklepod (Cassia obtusifolia, CASOB); assay: as above; settings: post-emerge, 14 days after application, rating scale 0-100
How it was run: as §4

Question: What does the source list for COc1c(Cl)cc(F)c(-n2c(=O)cc(C(F)(F)F)n(C)c2=O)c1NC(=O)COCc1ccccc1 [2-89]?
Answer: Pre-emerge Herbicidal Activity, phytotoxicity rating (0-100), SETVI ([1]; 63 g ai/ha): 100; Pre-emerge Herbicidal Activity, phytotoxicity rating (0-100), SETVI ([1]; 250 g ai/ha): 100; Pre-emerge Herbicidal Activity, phytotoxicity rating (0-100), IPOHE ([2]; 63 g ai/ha): 95; Pre-emerge Herbicidal Activity, phytotoxicity rating (0-100), IPOHE ([2]; 250 g ai/ha): 100; Pre-emerge Herbicidal Activity, phytotoxicity rating (0-100), SORHA ([3]; 63 g ai/ha): 60; Pre-emerge Herbicidal Activity, phytotoxicity rating (0-100), SORHA ([3]; 250 g ai/ha): 90; Pre-emerge Herbicidal Activity, phytotoxicity rating (0-100), ECHCG ([4]; 63 g ai/ha): 50; Pre-emerge Herbicidal Activity, phytotoxicity rating (0-100), ECHCG ([4]; 250 g ai/ha): 90; Pre-emerge Herbicidal Activity, phytotoxicity rating (0-100), ABUTH ([5]; 63 g ai/ha): 100; Pre-emerge Herbicidal Activity, phytotoxicity rating (0-100), ABUTH ([5]; 250 g ai/ha): 100; Pre-emerge Herbicidal Activity, phytotoxicity rating (0-100), CHEAL ([6]; 63 g ai/ha): 100; Pre-emerge Herbicidal Activity, phytotoxicity rating (0-100), CHEAL ([6]; 250 g ai/ha): 100; Pre-emerge Herbicidal Activity, phytotoxicity rating (0-100), DIGSA ([7]; 63 g ai/ha): 99; Pre-emerge Herbicidal Activity, phytotoxicity rating (0-100), DIGSA ([7]; 250 g ai/ha): 100; Pre-emerge Herbicidal Activity, phytotoxicity rating (0-100), CASOB ([8]; 63 g ai/ha): 95; Pre-emerge Herbicidal Activity, phytotoxicity rating (0-100), CASOB ([8]; 250 g ai/ha): 100; Pre-emerge phytotoxicity rating (0-100), crop damage, CORN ([9]; 63 g ai/ha): 10; Pre-emerge phytotoxicity rating (0-100), crop damage, CORN ([9]; 250 g ai/ha): 30; Pre-emerge phytotoxicity rating (0-100), crop damage, RICE ([10]; 63 g ai/ha): 40; Pre-emerge phytotoxicity rating (0-100), crop damage, RICE ([10]; 250 g ai/ha): 90; phytotoxicity rating CORN ([11]; 63 g ai/ha): 0; phytotoxicity rating CORN ([11]; 250 g ai/ha): 0; phytotoxicity rating RICE ([12]; 63 g ai/ha): 60; phytotoxicity rating RICE ([12]; 250 g ai/ha): 70; Pre-emerge Herbicidal Activity, phytotoxicity rating (0-100), AMARE ([13]; 63 g ai/ha): 100; Pre-emerge Herbicidal Activity, phytotoxicity rating (0-100), AMARE ([13]; 250 g ai/ha): 100; phytotoxicity rating AMARE ([14]; 63 g ai/ha): 70; phytotoxicity rating AMARE ([14]; 250 g ai/ha): 100; phytotoxicity rating SETVI ([15]; 63 g ai/ha): 20; phytotoxicity rating SETVI ([15]; 250 g ai/ha): 20; phytotoxicity rating IPOHE ([16]; 63 g ai/ha): 90; phytotoxicity rating IPOHE ([16]; 250 g ai/ha): 100; phytotoxicity rating SORHA ([17]; 63 g ai/ha): 0; phytotoxicity rating SORHA ([17]; 250 g ai/ha): 10; phytotoxicity rating ECHCG ([18]; 63 g ai/ha): 0; phytotoxicity rating ECHCG ([18]; 250 g ai/ha): 10; phytotoxicity rating ABUTH ([19]; 63 g ai/ha): 100; phytotoxicity rating ABUTH ([19]; 250 g ai/ha): 100; phytotoxicity rating CHEAL ([20]; 63 g ai/ha): 60; phytotoxicity rating CHEAL ([20]; 250 g ai/ha): 90; phytotoxicity rating DIGSA ([21]; 63 g ai/ha): 0; phytotoxicity rating DIGSA ([21]; 250 g ai/ha): 0; phytotoxicity rating CASOB ([22]; 63 g ai/ha): 50; phytotoxicity rating CASOB ([22]; 250 g ai/ha): 60
